# Results taken from US9579344B2, “Use of nitrite salts in treating tissue damage” (Board of Supervisors of Louisiana State University and …, priority 2009, dated 2017).
# Where two headings read alike, the source gives them in different places.
# Tests used:
# [1] = test system: ischemic tissue gene expression
# Method: (§1) Hind limb ischemia was induced by ligating the left common femoral artery proximal to origin of profunda femoris artery according to Senthilkumar, A., Smith, R. D., Khitha, J., Arora, N., Veerareddy, S., Langston, W., Chidlow, 1H., Jr., Barlow, S. c., Teng, x., Patel, R. P., et al. 2007. Arterioscler Thromb Vasc Biol 27: 1947-1954. Mice were anesthetized with intraperitoneal injection of ketamine (100 mglkg) and xylazine (8 mglkg); surgery was performed under aseptic conditions. The common femoral vein and femoral nerve were dissected away from the artery. Two ligatures were placed in the common femoral artery proximal to the profunda femoris artery and then transected between the two ligations. The incision was then closed and the ligation was immediately verified by laser Doppler measurement of tissue blood flow.
# RNA integrity was checked using the Agilent 2100 Bioanalyzer (Agilent Technologies, Palo Alto, Calif.). […] Double stranded cDNA was synthesized from 5 ug total RNA using a Superscript cDNA synthesis Kit (Invitrogen, Carlsbad, Calif.) and purified using the Gene Chip Sample Cleanup Module (Affymetrix, Santa Vlara, Calif.). After biotin-labeling, the cDNA were fragmented at 94° C. and hybridized to the GeneChip® Mouse Genome 430 2.0 Array (Affymetrix), which contains 39,000 fully annotated transcripts of the mouse genome. After washing and staining, the arrays were scanned using GeneChip Scanner 3000 (Affymetrix) and hybridization efficiency determined by housekeeping control and spike control probe sets.
# Array data were globally scaled to a target intensity value of 500 to compare individual array experiments. To determine differentially expressed genes between PBS and nitrite treatment, data were log transformed and uploaded into Genesifter program (www.genesifter.net). Identification of significant changes in gene expression were determined using a pair-wise comparison of PBS versus nitrite therapy gene array data at each individual time point with the following criteria: a minimal 2-fold difference in expression with no maximal threshold limit, a hybridization quality cutoff of 1, and an unpaired student t-test between treatment groups followed by Benjamini and Hochberg post test to limit false discovery rates.
# The resulting output of network analysis was broken down according to the genetic composition of networks, the biological function of the networks, the number of interrelated network relationships, as well as statistical analysis of individual networks.
# Induction of chronic hind limb ischemia was performed according to the method in Example 1. […] Nitrite doses were given once in the morning (8 am) and a second in the afternoon (5 pm) with muscle tissue harvested on the morning of the 4th and 8th days (to give an entire 3 and 7 day period for study). Four muscle specimens from individual mice were harvested per treatment cohort per time point for a total of 16 individual specimens for gene array analysis. Harvested tissue was immediately frozen in liquid nitrogen for subsequent total RNA isolation. Laser doppler blood flow measurements were taken from non-ischemic and ischemic hind limbs prior to tissue collection to determine the amount of ischemic tissue perfusion using a Vasamedics Laserflo BPM2 deep tissue penetrating doppler device. Percent restoration of blood flow was determined by dividing the ischemic hind limb blood flow by the non-ischemic hind limb blood flow and multiplying by 100. Statistical analysis of changes in tissue blood flow between treatment groups at specific time points were performed with an unpaired students t-test using Prism software (Graphpad).
# [2] = test system: coronary artery endothelial cells, umbilical vein endothelial cells
# Method: (§2) A contained hypoxia tissue culture system was used allowing the long term culturing of cells in hypoxia (24 hrs). A fluorescent plate reader in hypoxic chamber measured NO formation using the fluorescent dye DAF-FM.
# (§3) The effect of specific inhibitors of NO production, carboxy PTIO (2-(4-Carboxyphenyl)-4,4,5,5-tetramethylimidazoline-1-oxyl-3-oxide), allopurinol and L-NAME, was also analyzed. […] Results for iliac vein smooth muscle cells are shown in FIGS. 7A, 7B and 8; results for aortic smooth muscle cells are shown in FIGS. 9A, 9B and 10; results for coronary artery cells are shown in FIGS. 11A, 11B and 12, results for umbillical vein cells are shown in FIGS. 13A, 13B and 14.
# [3] = test system: iliac vein smooth muscle cells, aortic smooth muscle cells
# Method: as §2, §3
# [4] = test system: cultured cells; settings: hypoxic and normoxic conditions, 100 nM or 1 uM sodium nitrite (FIG. 16)
# Method: FIG. 16 depicts the chemiluminescent detection of nitrite/nitric oxide during hypoxia.
# as §3
# [5] = test system: ischemic hind limb of B6.BKS-Lepr^db/db diabetic mice; settings: aged diabetic mice, 165 ug/kg
# Excerpt: (§4) B6.BKS-Lepr^db/db diabetic mice were purchased from Jackson's laboratory and housed in the animal center of LSU Health Sciences Center for 6 months. Surgical hind limb ischemia was created in 9 month-old male (Db/Db) type-2 diabetic mice. The mice were anesthetized by isoflurane inhalation and the left groin area was shaved and naired. The left external iliac artery and vein, left femoral artery and vein, left saphenous artery and vein and deep femoral and circumflex arteries and veins were ligated, cut, and excised to obtain a mouse model of critical hind limb ischemia. […] All treatments were performed in a double-blinded manner.
# Laser Doppler blood flows were measured using a Vasamedics Laserflo BPM2 device in the gastrocnemius pre-ligation, post-ligation and on days 1, 3, 5, 7, 9, 11, 13, 15, 17, 19 and 21 post-ligation. Blood vessels visible through the skin were avoided to ensure readings indicative of muscle blood flow. Measurements were recorded as milliliter of blood flow per 100 grams of tissue per minute. Percent blood flows were calculated as: a/b××100 where a=ischemic limb average flow and b=non-ischemic limb average flow.
# [6] = aged diabetic mice
# Excerpt: as §4
# Blood glucose measurements were taken using Ascensia Elite blood glucose test strips and a Bayer Glucometer Elite.
# Plasma total cholesterol and LDL levels were determined using a Siemens Vista Clinical Chemistry analyzer.
# [7] = test system: gastrocnemius muscles of aged diabetic mice; settings: non-ischemic tissues of aged diabetic mice (FIG. 21B)
# Excerpt: as §4
# The gastrocnemius muscles from ischemic and non-ischemic hind limbs were removed, dissected, and embedded in OCT freezing medium. Frozen tissue blocks were cut into 5 μm sections and slides prepared. A primary antibody against PECAM-1 was added at a 1:200 dilution along with anti-Ki67 (1:350 dilutions) and incubated at 37° C. for 1 hour. Slides were then washed and a Cy3 conjugated secondary antibody was added at a 1:250 dilution along with anti-rabbit Ig antibody at a 1:150 dilution and incubated at room temperature for 1 hour. Slides were once again washed and mounted with cover slips using Vectashield DAPI. […] Cellular proliferation was determined as the ratio between regions positive for Ki67 and DAPI positive area.
# [8] = test system: ischemic hindlimbs of aged diabetic mice; settings: PBS controls showed extensive necrosis and digit loss
# Excerpt: as §4
# [9] = test system: ischemic hindlimbs of C57Bl/6J mice; settings: fluorescence angiograms, 4 seconds blush time, vs PBS
# Method: as §1
# [10] = test system: C2C12 myoblasts
# Excerpt: as §2
# [11] = test system: C2C12 myoblast cells; settings: hypoxic conditions
# [12] = cardiovascular development and function, skeletal muscle development, tissue development
# [13] = cellular assembly and organization, carbohydrate metabolism, molecular transport
# [14] = day 3, 165 μg/kg twice daily i.p., vs PBS
# [15] = day 3, Ingenuity network analysis
# [16] = day 7, 165 μg/kg twice daily i.p., vs PBS
# [17] = inflammatory response, neurological disease, cellular development
compound,measurement,setting,value
O=NO [sodium nitrite],"genes enhanced, FIG. 2 network","[1]; antigen presentation, cell mediated immunity, humoral mediated immunity","calsequestrin 2, GST alpha 5, and solute carrier family member 25"
same,"genes inhibited, FIG. 6 network","[1]; cancer, nervous system development and function, tissue morphology","glycerol-3-phosphate dehydrogenase and protein phosphatase 2, reg subunit B"
same,"genes enhanced, FIG. 3 network",[1]; [12],"CXCR6, VE-cadherin, DIX domain containing 1, myosin, heavy chain 2, myosin, light chain 2, myosin, light chain 4, myosin, light chain 9, P2rY2, paired like homeodomain 2, troponin C, type 1, troponin T, type 2 and vitronectin"
same,"genes inhibited, FIG. 3 network",[1]; [12],"Rho Gtpase activating protein 17, CCR5, CXCL12, CXCL7, formin binding protein 1, G protein coupled receptor 65, 5-HT receptor 2B, serine/threonine kinase 17b and thrombospondin 2"
same,"genes enhanced, FIG. 1 network","[1]; cardiovascular system development and function, tissue morphology, carbohydrate metabolism","flavin containing monoxygenase 5, smoothelin like 1, mysoin heavy chain 7, CUB zona pellucida like domains 1 and small proline rich protein 1A"
same,"genes enhanced, FIG. 4 network",[1]; [13],"cyclin M4, EH domain containing 2, myosin heavy chain 7, myosin light chain 9 regulatory, popeye domain containing 2 and TEA domain family member 4"
same,"genes inhibited, FIG. 4 network",[1]; [13],"adipose differentiated-related protein, chitinase 3-like 3, kinesin family member 20B, leukocyte specific transcript 1, RNA binding motif protein 47 and sorting nexin 6"
same,genes down-regulated,[1]; [14],346 genes
same,genes up-regulated,[1]; [14],111 genes
same,expression of genes associated with innate and acquired immune responses (FIG. 1),[1]; [15],inhibited
same,"expression of genes involved in antigen presentation, cell mediated immunity, and humoral mediated immunity (FIG. 2)",[1]; [15],altered
same,"expression of genes involved in cardiovascular development and function, skeletal muscle development, and tissue development (FIG. 3)",[1]; [15],altered
same,"expression of genes involved in cardiovascular system development and function, tissue morphology, and carbohydrate metabolism (FIG. 1)",[1]; [15],enhanced
same,"expression of genes involved in cellular assembly and organization, carbohydrate metabolism and molecular transport (FIG. 4)",[1]; [15],altered
same,"expression of genes involved in inflammatory response, neurological disease and cellular development (FIG. 5)",[1]; [15],altered
same,distinct gene expression profiles significantly altered,"[1]; day 3 of ischemia, 165 μg/kg twice daily i.p., vs PBS, minimal 2-fold difference",457
same,expression of genes associated with tissue remodeling,[1]; day 7,enhanced
same,genes down-regulated,[1]; [16],55 genes
same,genes up-regulated,[1]; [16],219 genes
same,"expression of genes involved in cancer, nervous system development and function and tissue morphology (FIG. 6)","[1]; day 7, Ingenuity network analysis",altered
same,genes with differentially impacted expression profile,"[1]; day 7 of ischemia, 165 μg/kg twice daily i.p., vs PBS",274 genes
same,"genes enhanced, FIG. 5 network",[1]; [17],"glycogen syntase 1 (muscle), kin of IRRE like 3, solute carrier family 16, member 3, solute carrier family 8, member 3 and uridine-cytidine kinase 2"
same,"genes inhibited, FIG. 5 network",[1]; [17],"C-type lectin domain family 5, A, FERM domain containing 4B, receptor (G protein coupled) activity modifying protein 2, signal-regulatory protein beta 1, solute carrier family 15, member 3 and zinc finger E-box binding homeobox 2"
same,myogenin mRNA levels,"[1]; ischemic mouse hindlimb gastrocnemius muscle, nitrite-treated animals (FIG. 25A)",significantly increased
same,"nitrite reduction to NO, concentration dependence",[2],reduced nitrite to NO at lower concentrations of exogenous nitrite
same,nitrite reduction to NO,[2]; hypoxic conditions (1% oxygen),reduced nitrite to NO
same,DAF fluorescence (NO formation),[3]; higher concentrations of exogenous nitrite required,large increases in DAF fluorescence
same,nitrite reduction to NO,[3]; hypoxic conditions (1% oxygen),reduced nitrite to NO
same,intracellular NO levels,[4],"lower concentrations, but not higher concentrations, of sodium nitrite resulted in a significant increase"
same,blood flow in ischemic hind limbs compared with PBS-treated control animals,[5]; all time points analyzed,significantly greater
same,blood flow in ischemic hind limbs relative to preligation,[5]; by the end of the study,approached preligation levels
same,ischemic hind-limb blood flow,[5]; treatment delayed to five days after surgery,restored
same,body weight,[6]; delayed chronic treatment (FIG. 18A),did not alter
same,blood glucose levels,[6]; delayed chronic treatment (FIG. 18B),did not alter
same,serum cholesterol,[6]; delayed chronic treatment (FIG. 19A),significantly decreased
same,serum LDL,[6]; delayed chronic treatment (FIG. 19B),significantly decreased
same,epithelial cell proliferation,[7],but not non-ischemic tissues
same,digit loss,[8],no digit loss
same,necrosis,[8],minimal necrosis
same,arteriogenesis,[9],significantly increased
same,levels of NO,"[10]; 0.01 uM sodium nitrite, only in hypoxic conditions (FIG. 24B)",significantly increased
same,NO levels,[10]; 100 uM sodium nitrite (FIG. 24A),did not alter
same,myogenin mRNA,"[11]; decreasing levels of sodium nitrite, inversely correlated with nitrite concentration",dose-dependent increase
same,levels of myogenin mRNA,[11]; lowest dose 0.01 uM sodium nitrite,highest
